From patent US8497380B2, “Substituted acetophenones useful as PDE4 inhibitors” (Leo Pharma A/S, priority 2006, dated 2013)

Test system: Human peripheral blood mononuclear cells (PBMC)
Experiment: TNFalfa-Release
Format: cell-based
Settings: inhibition of TNF-a secretion, PBMC pre-incubated 30 minutes, stimulated 18 hours with lipopolysaccharide
Protocol: Human peripheral blood mononuclear cells (PBMC) are Isolated from buffy coats. The blood is mixed with saline at a ratio of 1:1, and the PBMC is isolated by the use of Lymphoprep Tubes™ (Nycomed, Norway). The PBMC is suspended in RPMI1640 with 2% foetal calf serum (FCS), pen/strep and 2 mM L-glutamine at a concentration of 5×105 c/ml. The cells are pre-incubated for 30 minutes with the test compounds in 96 well tissue culture plates and stimulated for 18 hours with lipopolysaccharide 1 mg/ml (Sigma). The level of TNF-a is measured in the culture supernatant by enzyme immuno assays using primary and secondary biotinylated antibodies from R&D systems. Results are expressed as pIC50 values calculated from inhibition curves using as positive controls the secretion in LPS stimulated wells and as negative controls the secretion in unstimulated cells.

Row | SMILES | IC50 [µM]
1 | COc1ccc(C(=O)Cc2c(Cl)cncc2Cl)c(OCCc2ccc(S(C)(=O)=O)cc2)c1OC [Compound 282, 2-(3,5-Dichloro-pyridin-4-yl)-1-{2-[2-(4-methanesulfonyl-phenyl)-ethoxy]-3,4-dimethoxy-phenyl}-ethanone] | < 1
2 | CCCCCOc1c(C(=O)Cc2c(Cl)cncc2Cl)ccc(OC)c1OC [Compound 150, 2-(3,5-Dichloro-pyridin-4-yl)-1-(3,4-dimethoxy-2-pentyloxy-phenyl)-ethanone] | < 1
3 | COc1ccc(C(=O)Cc2c(Cl)cncc2Cl)c(OCc2csc(C)n2)c1OC [Compound 116, 2-(3,5-Dichloro-pyridin-4-yl)-1-[3,4-dimethoxy-2-(2-methyl-thiazol-4-ylmethoxy)-phenyl]-ethanone] | < 1
4 | CCOc1c(OC)ccc(C(=O)Cc2c(Cl)cncc2Cl)c1OCc1nnc(C2CC2)s1 [Compound 264, 1-[2-(5-Cyclopropyl-[1,3,4]thiadiazol-2-ylmethoxy)-3-ethoxy-4-methoxy-phenyl]-2-(3,5-dichloro-pyridin-4-yl)-ethanone] | < 1
5 | COc1ccc(C(=O)Cc2c(Cl)cncc2Cl)c(OCC(=O)NCc2ccncc2)c1OC [Compound 232, 2-{6-[2-(3,5-Dichloro-pyridin-4-yl)-acetyl]-2,3-dimethoxy-phenoxy}-N-pyridin-4-ylmethyl-acetamide] | < 1
6 | COc1ccc(C(=O)Cc2c(Cl)cncc2Cl)c(OCc2ncon2)c1OC [Compound 118, 2-(3,5-Dichloro-pyridin-4-yl)-1-[3,4-dimethoxy-2-([1,2,4]oxadiazol-3-ylmethoxy)-phenyl]-ethanone] | < 1
7 | COc1ccc(C(=O)Cc2c(Cl)cncc2Cl)c(OCC(=O)NC2CCCCC2)c1OC [Compound 215, N-Cyclohexyl-2-{6-[2-(3,5-dichloro-pyridin-4-yl)-acetyl]-2,3-dimethoxy-phenoxy}-acetamide] | < 1
8 | COc1ccc(C(=O)Cc2c(Cl)cncc2Cl)c(OCc2cc(C)on2)c1OC [Compound 108, 2-(3,5-Dichloro-pyridin-4-yl)-1-[3,4-dimethoxy-2-(5-methyl-isoxazol-3-ylmethoxy)-phenyl]-ethanone] | < 1
9 | COc1ccc(C(=O)Cc2c(Cl)cncc2Cl)c(OCCc2cccc(Br)c2)c1OC [Compound 127, 1-{2-[2-(3-Bromo-phenyl)-ethoxy]-3,4-dimethoxy-phenyl}-2-(3,5-dichloro-pyridin-4-yl)-ethanone] | < 1
10 | COc1ccc(C(=O)Cc2c(Cl)cncc2Cl)c(OC)c1OCC1CC1 [Compound 189, 1-(3-Cyclopropylmethoxy-2,4-dimethoxy-phenyl)-2-(3,5-dichloro-pyridin-4-yl)-ethanone] | < 1
11 | COc1ccc(C(=O)Cc2c(Cl)cncc2Cl)c(OCC(=O)NCc2cccc(F)c2F)c1OC [Compound 235, 2-{6-[2-(3,5-Dichloro-pyridin-4-yl)-acetyl]-2,3-dimethoxy-phenoxy}-N-(2,3-difluoro-benzyl)-acetamide] | < 1
12 | COc1ccc(C(=O)Cc2c(Cl)cncc2Cl)c(OCc2nnc(C3CC3)s2)c1OC [Compound 117] | < 1
13 | COc1cccc(COc2c(C(=O)Cc3c(Cl)cncc3Cl)ccc(OC)c2OC)c1 [Compound 177, 2-(3,5-Dichloro-pyridin-4-yl)-1-[3,4-dimethoxy-2-(3-methoxy-benzyloxy)-phenyl]-ethanone] | < 1
14 | C=CCOc1c(OC)ccc(C(=O)Cc2c(Cl)cncc2Cl)c1OCCc1ccc(F)cc1 [Compound 269, 1-{3-Allyloxy-2-[2-(4-fluoro-phenyl)-ethoxy]-4-methoxy-phenyl}-2-(3,5-dichloro-pyridin-4-yl)-ethanone] | < 1
15 | CCOc1c(OC)ccc(C(=O)Cc2c(Cl)cncc2Cl)c1OCC(=O)OCc1ccccc1 [Compound 265, {6-[2-(3,5-Dichloro-pyridin-4-yl)-acetyl]-2-ethoxy-3-methoxy-phenoxy}-acetic acid benzyl ester] | < 1
